PubChem BioAssay AID602217 (Sanford-Burnham Center for Chemical Genomics, 2012)
Active and inactive are the calls of the source.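 Rule for the calls: active = IC50 at or below a set limit; inactive = the rest.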

Test system: HL-1 cardiomyocytes, 2-deoxyglucose injury, ATPLite luminescence, 2 h
Assay: 2-DG-induced HL-1 ATP loss suppression – cell-based, ATPLite luminescence, dose response (AID 602217);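 note: cells kept in glucose-free DMEM during the 2-deoxyglucose injury; potency of protection where actives preserve ATP signal against 2-deoxyglucose stress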

**Q.** How did the IC50 turn out when `COc1ccc(C(C(=O)NC2CCCC2)N(C(=O)c2snc(C(N)=O)c2N)c2cccc(O)c2)cc1` (stereo unspecified) was run?
**A.** 40.9 µM (inactive)

**Q.** Which IC50 does the source give for `C[C@@H]1CN([C@@H](C)CO)C(=O)c2cc(NC(=O)Nc3ccccc3)ccc2O[C@H]1CN(C)C(=O)Nc1cccc2ccccc12` here?
**A.** > 79 µM (inactive)

**Q.** For `O=C1OCCN1C(=O)[C@H]1[C@H](c2ccc([N+](=O)[O-])cc2)C(c2ccc(F)cc2)=NN1c1ccc(Br)cc1`, which IC50 is on record?
**A.** > 79 µM (inactive)

**Q.** How did the IC50 turn out when `O=C(Nc1ccccc1)c1nc[nH]c1C(=O)NCCCCCCNC(=O)c1[nH]cnc1C(=O)Nc1ccccc1` was run?
**A.** > 79 µM (inactive)

**Q.** How did the IC50 turn out when `COc1ccc(NC(=O)c2cc(-c3ccccn3)nc3ccccc23)cc1S(=O)(=O)N(C)C` was run?
**A.** 20.5 µM (inactive)

**Q.** Which IC50 does the source give for `CCOc1ccc2nc(NC(=O)CN3CCC(n4nnc5cc(F)ccc54)CC3)sc2c1` here?
**A.** 9.48 µM

**Q.** How did the IC50 turn out when `CC(=O)c1cccc(Nc2nc3ccccc3n3cnnc23)c1` was run?
**A.** > 79 µM (inactive)

**Q.** How did the IC50 turn out when `Nc1c(C(=O)N/N=C/c2cccnc2)oc2nc(-c3ccccc3)cc(-c3ccco3)c12` was run?
**A.** > 79 µM (inactive)

**Q.** Which IC50 does the source give for `NC(=O)c1cc2ccccc2o/c1=N\NC(=O)c1ccc(F)cc1` here?
**A.** > 79 µM (inactive)

**Q.** Which IC50 does the source give for `COc1cccc(-c2cnc3c(NC(C)=O)cc(-c4cccc(NS(C)(=O)=O)c4)cn23)c1` here?
**A.** > 79 µM (inactive)

**Q.** With `COc1cc(-c2cc(NC=O)c3ncc(-c4ccc(C(C)=O)cc4)n3c2)cc(OC)c1OC` as the molecule, how does the IC50 read?
**A.** > 79 µM (inactive)

**Q.** How did the IC50 turn out when `Cc1ccc(NC(=O)c2nc[nH]c2C(=O)NCCCNC(=O)c2[nH]cnc2C(=O)Nc2ccc(C)cc2)cc1` was run?
**A.** > 79 µM (inactive)

**Q.** With `Cc1ccc(-n2cc(-c3ccccc3)c3c(N4CCOCC4)ncnc32)cc1` as the molecule, how does the IC50 read?
**A.** 7.85 µM

**Q.** With `COC(=O)c1[nH]c2ccccc2c1NC(=O)CNC1CCCCC1` as the molecule, how does the IC50 read?
**A.** 41 µM (inactive)

**Q.** With `COc1ccc(-c2cc3nc(-c4ccccc4)cc(N4CCN(C(C)=O)CC4)n3n2)cc1` as the molecule, how does the IC50 read?
**A.** 43.7 µM (inactive)

**Q.** Which IC50 does the source give for `COc1cc(Nc2nc3ccccc3n3nnnc23)cc(OC)c1OC` here?
**A.** > 79 µM (inactive)

**Q.** Which IC50 does the source give for `CCN(CC)C(=O)c1[nH]cnc1C(=O)NCC(=O)OCc1ccccc1` here?
**A.** 69.9 µM (inactive)

**Q.** For `Cc1cc(N)n(-c2nc(-c3cccnc3)nc3ccccc23)n1`, which IC50 is on record?
**A.** > 79 µM (inactive)

**Q.** Which IC50 does the source give for `CC(=O)Nc1cccc(-c2cc(NC(C)=O)c3ncc(-c4ccccc4)n3c2)c1` here?
**A.** 30.9 µM (inactive)

**Q.** How did the IC50 turn out when `COc1ccccc1OP(=O)(Nc1cccnc1)Oc1ccccc1OC` was run?
**A.** 21.2 µM (inactive)

**Q.** Which IC50 does the source give for `COc1ccc(-c2cc(-c3nnc(COC(=O)C4CC4C)o3)c3ccccc3n2)cc1OC` (stereo unspecified) here?
**A.** > 79 µM (inactive)

**Q.** For `CCOC(=O)C(Cc1ccc(NC(=O)/C(=C/c2ccc(OC(C)=O)cc2)NC(C)=O)cc1)N1C(=O)c2ccccc2C1=O` (stereo unspecified), which IC50 is on record?
**A.** 52.5 µM (inactive)

**Q.** How did the IC50 turn out when `O=C(NCC(=O)N(Cc1cccs1)C(C(=O)NC1CCCCC1)c1ccco1)c1ccco1` (stereo unspecified) was run?
**A.** > 79 µM (inactive)

**Q.** With `Cc1cc(C)c2c(N)c(C(=O)N/N=C/c3cccnc3)sc2n1` as the molecule, how does the IC50 read?
**A.** > 79 µM (inactive)

**Q.** `COc1ccc(-c2csc(NC(=O)CCCc3nc4ccccc4c(=O)[nH]3)n2)cc1OC` was tested. Which IC50 did it give?
**A.** > 79 µM (inactive)

**Q.** How did the IC50 turn out when `COc1cccc(-c2cnc3c(NC=O)cc(-c4ccc(O)c(OC)c4)cn23)c1` was run?
**A.** 27.4 µM (inactive)

**Q.** With `CC1Nc2ncnc(N3CCN(c4ccccc4)CC3)c2N(Cc2ccc(Cl)cc2)C1=O` (stereo unspecified) as the molecule, how does the IC50 read?
**A.** 1.95 µM

**Q.** With `Cc1ccc(C=NNc2nc3c([nH]2)c(=O)n(C)c(=O)n3C)cc1` as the molecule, how does the IC50 read?
**A.** > 79 µM (inactive)

**Q.** `COc1ccccc1CN(C(=O)CNC(=O)c1ccco1)C(C(=O)NCC1CCCO1)c1ccccc1` (stereo unspecified) was tested. Which IC50 did it give?
**A.** 71.3 µM (inactive)

**Q.** With `COc1ccc(-c2cc(C(=O)N(C)Cc3ccc(OC)c(OC)c3OC)c3ccccc3n2)cc1OC` as the molecule, how does the IC50 read?
**A.** 32.1 µM (inactive)

**Q.** With `COc1ccc(-c2ccc3c(c2)S(=O)(=O)c2cccc(C(=O)N4CCN(c5c(Cl)cncc5Cl)CC4)c2C3=O)cc1OC` as the molecule, how does the IC50 read?
**A.** 13.7 µM

**Q.** Which IC50 does the source give for `COc1ccc(OC)c(/C=N/NC(=O)c2cc3c(OC)c(OC)ccc3[nH]2)c1` here?
**A.** > 79 µM (inactive)

**Q.** How did the IC50 turn out when `N#Cc1c(-c2ccco2)cc(-c2cccnc2)nc1N` was run?
**A.** 14.6 µM

**Q.** With `CC(C)(C)OC(=O)C[C@@H]1C/C=C\C[C@@H](CC(=O)N[C@@H](CO)Cc2ccccc2)C(=O)NC[C@@H](c2ccccc2)OC1=O` as the molecule, how does the IC50 read?
**A.** > 79 µM (inactive)

**Q.** For `COc1cccc(-c2cnc3c(NC=O)cc(-c4cccc(NC(C)=O)c4)cn23)c1`, which IC50 is on record?
**A.** 17.6 µM

**Q.** With `CC(OC(=O)c1cc(-c2cccnc2)nc2ccccc12)C(=O)Nc1ccc2ccccc2c1` (stereo unspecified) as the molecule, how does the IC50 read?
**A.** > 79 µM (inactive)

**Q.** Which IC50 does the source give for `CCOc1cc(-c2cc(-c3ccc(N)cc3)nc(N)c2C#N)ccc1O` here?
**A.** > 79 µM (inactive)

**Q.** How did the IC50 turn out when `CC(=O)c1ccc(-c2ccc(C(=O)Nc3nc(-c4ccccn4)cs3)o2)cc1` was run?
**A.** > 79 µM (inactive)

**Q.** Which IC50 does the source give for `O=C(N/N=C/c1ccccn1)c1cc(-c2cccc3ccccc23)n[nH]1` here?
**A.** 2.9 µM

**Q.** How did the IC50 turn out when `COc1ccccc1NC(=O)c1cc(-c2ccc(OC)c(OC)c2)nc2ccccc12` was run?
**A.** 15.6 µM

**Q.** `CCN(CC(=O)Nc1ccc(OC)cc1)C(=O)c1cc(-c2cccs2)nn1-c1ccccc1` was tested. Which IC50 did it give?
**A.** 17.6 µM

**Q.** With `COc1cc(-c2cnc3c(NC=O)cc(-c4cccnc4)cn23)cc(OC)c1OC` as the molecule, how does the IC50 read?
**A.** 7.57 µM

**Q.** For `O=C(CN1CCN(c2ccccn2)CC1)Nc1ccc([N+](=O)[O-])cc1C(=O)Nc1ccccc1F`, which IC50 is on record?
**A.** 17.9 µM

**Q.** With `COc1ccc(-c2cc(NC(C)=O)c3ncc(-c4cccc(C(C)=O)c4)n3c2)cc1OC` as the molecule, how does the IC50 read?
**A.** > 79 µM (inactive)

**Q.** For `COc1cc(/C=N/NC(=O)c2ccccc2)ccc1OS(=O)(=O)c1ccccc1`, which IC50 is on record?
**A.** > 79 µM (inactive)

**Q.** Which IC50 does the source give for `COc1cccc(/C=N/NC(=O)c2oc3nc(-c4ccccc4)cc(-c4ccco4)c3c2N)c1` here?
**A.** 4.97 µM

**Q.** With `O=C(COC(=O)c1c2c(nc3ccccc13)/C(=C/c1cccc([N+](=O)[O-])c1)CCC2)NC1CCS(=O)(=O)C1` (stereo unspecified) as the molecule, how does the IC50 read?
**A.** > 79 µM (inactive)

**Q.** How did the IC50 turn out when `CC(=O)Nc1cc(-c2cccc(NS(C)(=O)=O)c2)cn2c(-c3cccc(C(C)=O)c3)cnc12` was run?
**A.** 36.4 µM (inactive)

**Q.** How did the IC50 turn out when `COC(=O)c1cc2c(-c3ccccc3)cc3ccccn3c-2c1C(=O)OC` was run?
**A.** > 79 µM (inactive)

**Q.** `Cc1[nH]c2ccccc2c1/C=N/NC(=O)c1cc(-c2ccccc2)n[nH]1` was tested. Which IC50 did it give?
**A.** 22.8 µM (inactive)

**Q.** Which IC50 does the source give for `COc1cccc(Nc2nc(-c3sc(NC(=O)c4ccco4)nc3C)cs2)c1` here?
**A.** 26.4 µM (inactive)

**Q.** `COc1cc(NC(=O)c2cc3ccccc3cc2OC)ccc1NC(=O)c1cccs1` was tested. Which IC50 did it give?
**A.** 5.85 µM

**Q.** With `CC12C=CC(=O)CC1CCC1C2CCC2(C)C(O)C(O)CC12` (stereo unspecified) as the molecule, how does the IC50 read?
**A.** > 79 µM (inactive)

**Q.** `CC(C)(C)OC(=O)N1CCC(NC(=O)c2nc[nH]c2C(=O)NCC(=O)OCc2ccccc2)CC1` was tested. Which IC50 did it give?
**A.** 25.8 µM (inactive)

**Q.** How did the IC50 turn out when `CC(=O)Nc1cccc(-c2cc(NC=O)c3ncc(-c4ccc(C(C)=O)cc4)n3c2)c1` was run?
**A.** 23.1 µM (inactive)

**Q.** Which IC50 does the source give for `Cc1cc(C)c(C)c(S(=O)(=O)N2CCN(C(=O)c3cc(=O)[nH]c4ccccc34)CC2)c1C` here?
**A.** 23.7 µM (inactive)

**Q.** Which IC50 does the source give for `COc1cc(-c2cc(C(=O)OCC(=O)NC3CC3)c3ccccc3n2)cc(OC)c1OC` here?
**A.** 47.4 µM (inactive)

**Q.** For `COc1cc(/C=C(\C#N)c2nc3ccc(C)cc3[nH]2)c([N+](=O)[O-])cc1OC`, which IC50 is on record?
**A.** > 79 µM (inactive)

**Q.** How did the IC50 turn out when `Brc1cc2c(cc1/C=N/Nc1nc(N3CCCC3)nc(N3CCOCC3)n1)OCO2` was run?
**A.** > 79 µM (inactive)

**Q.** Which IC50 does the source give for `COc1cccc(-c2cnc3c(NC=O)cc(-c4cc(OC)c(OC)c(OC)c4)cn23)c1` here?
**A.** > 79 µM (inactive)

**Q.** For `COc1ccc(-c2csc(NC(=O)c3ccc(OCC(=O)N4CCOCC4)c(OC)c3)n2)cc1OC`, which IC50 is on record?
**A.** > 79 µM (inactive)

**Q.** For `CC(=O)c1ccc(-c2cnc3c(NC=O)cc(-c4cccc(C(=O)N(C)C)c4)cn23)cc1`, which IC50 is on record?
**A.** > 79 µM (inactive)

**Q.** Which IC50 does the source give for `Cc1cccc(NC(=O)c2nc[nH]c2C(=O)NCCCCNC(=O)c2[nH]cnc2C(=O)Nc2cccc(C)c2)c1` here?
**A.** > 79 µM (inactive)

**Q.** How did the IC50 turn out when `COc1ccc(CCNC(=O)C(=O)NCC2CCCN2S(=O)(=O)c2ccccc2)cc1OC` (stereo unspecified) was run?
**A.** 45.9 µM (inactive)

**Q.** With `O=C(CN(c1ccc2c(c1)OCCO2)S(=O)(=O)c1ccccc1)Nc1ccc2c(c1)OCO2` as the molecule, how does the IC50 read?
**A.** > 79 µM (inactive)

**Q.** How did the IC50 turn out when `CCn1c(O)c(/C=N/N=C/c2ccccc2)c2ccc(C3=NNC(=O)CC3)cc21` was run?
**A.** 18.1 µM

**Q.** Which IC50 does the source give for `CNC(=O)c1ccc(-c2sc3nc(N4CCOCC4)c4c(c3c2N)CC(C)(C)OC4)o1` here?
**A.** 46.1 µM (inactive)

**Q.** Which IC50 does the source give for `CCOC(=O)c1ccc(NC(=O)c2nc[nH]c2C(=O)NCCCCCNC(=O)OC(C)(C)C)cc1` here?
**A.** > 79 µM (inactive)

**Q.** `COc1cc(-c2cc(C(=O)NCc3ccco3)c3ccccc3n2)cc(OC)c1OC` was tested. Which IC50 did it give?
**A.** 31.6 µM (inactive)

**Q.** With `COc1cc(CN2C[C@@H](CO)O[C@@H](n3cnc4c(Nc5ccccc5)ncnc43)C2)cc(OC)c1OC` as the molecule, how does the IC50 read?
**A.** > 79 µM (inactive)

**Q.** Which IC50 does the source give for `COc1cc(-c2cc(NC(C)=O)c3ncc(-c4cc(OC)c(OC)c(OC)c4)n3c2)cc(OC)c1OC` here?
**A.** 6.4 µM

**Q.** Which IC50 does the source give for `COc1cc(-c2cc(C(=O)Nc3ccccc3N3CCOCC3)c3ccccc3n2)cc(OC)c1OC` here?
**A.** 13.1 µM

**Q.** With `COc1cc(/C=C/C(=O)Nc2ccc3nc4n(c(=O)c3c2)CCCC4)cc(OC)c1OC` as the molecule, how does the IC50 read?
**A.** 51.5 µM (inactive)

**Q.** How did the IC50 turn out when `CC(C)(C)NC(=O)c1cc(NC(=O)c2cccs2)cc(NC(=O)c2cccs2)c1` was run?
**A.** > 79 µM (inactive)

**Q.** `CC(C)OCCCNC(=O)CCC(=O)NNc1nc2ccccc2c2nc(-c3ccccc3)nn12` was tested. Which IC50 did it give?
**A.** > 79 µM (inactive)

**Q.** `CN(C)S(=O)(=O)c1ccc2[nH]cc(/C=C/c3nc4ccccc4c(=O)n3-c3ccccc3)c2c1` was tested. Which IC50 did it give?
**A.** 5 µM
